US20240287052A1, “NOVEL OXAZOLE DERIVATIVE AND PHARMACEUTICAL COMPOSITION FOR PREVENTING OR TREATING ALLERGIC DISEASES COMPRISING THE SAME” (AZCURIS CO., LTD., priority 2021, published 2024)
Read-outs that look alike come from different tables or passages of the source.

Target: T1, IL33 and ST2 binding (Homo sapiens, UniProt O95760)
T1 sequence (O95760 112-270 limits assumed): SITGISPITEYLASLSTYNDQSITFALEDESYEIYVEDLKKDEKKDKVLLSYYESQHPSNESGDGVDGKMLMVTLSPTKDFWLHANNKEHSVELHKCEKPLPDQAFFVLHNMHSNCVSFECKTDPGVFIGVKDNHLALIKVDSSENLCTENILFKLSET
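Note: plate ELISA with coated Flag-tagged human IL-33 and His-tagged human ST2, bound ST2 detected by anti-His HRP and TMB absorbance at 450 nm, 2 h compound incubation.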

inhibition (30 µM) | inhibition (100 µM) | Structure (SMILES)
19% | 55% | COc1cccc(-c2nc(C(=O)NCCN(C)C)c(-c3ccccc3)o2)c1 [Compound 208, N-(2-(Dimethylamino)ethyl)-2-(3-methoxyphenyl)-5-phenyloxazole-4-carboxamide]
12% | 22% | CCOC(=O)c1nc(-c2cc(F)cc(F)c2)oc1-c1ccccc1 [Compound 73, Ethyl 2-(3,5-difluorophenyl)-5-phenyloxazole-4-carboxylate]
-27% | -27% | CN(C)CCNC(=O)c1nc(-c2ccc(F)c(F)c2)oc1-c1ccccc1[N+](=O)[O-] [Compound 233, 2-(3,4-Difluorophenyl)-N-(2-(dimethylamino)ethyl)-5-(2-nitrophenyl)oxazole-4-carboxamide]
19% | -2% | CCOC(=O)c1nc(-c2ccc(C(F)(F)F)cc2)oc1-c1ccc(N(C(C)=O)C(C)=O)cc1 [Compound 109, Ethyl 5-(4-(N-acetylacetamido)phenyl)-2-(4-(trifluoromethyl)phenyl)oxazole-4-carboxylate]
16% | 4% | CN(C)CCNC(=O)c1nc(-c2ccc(C3CC3)cc2)oc1-c1ccccc1 [Compound 279, 2-(4-Cyclopropylphenyl)-N-(2-(dimethylamino)ethyl)-5-phenyloxazole-4-carboxamide]
8% | 5% | CCOC(=O)c1nc(-c2ccc(C(F)(F)F)cc2)oc1-c1cccc(N)c1 [Compound 100, Ethyl 5-(3-aminophenyl)-2-(4-(trifluoromethyl)phenyl)oxazole-4-carboxylate]
3% | 5% | O=C(c1ccc(N2CCCCC2)cc1)c1nc(-c2ccc(C(F)(F)F)cc2)oc1-c1ccccc1[N+](=O)[O-] [Compound 162, (5-(2-Nitrophenyl)-2-(4-(trifluoromethyl)phenyl)oxazol-4-yl)(4-(piperidin-1-yl)phenyl)methanone]
9% | 23% | CN1CCN(CCNC(=O)c2nc(-c3ccc4ccccc4c3)oc2-c2ccccc2[N+](=O)[O-])CC1 [Compound 260, N-(2-(4-Methylpiperazin-1-yl)ethyl)-2-(naphthalen-2-yl)-5-(2-nitrophenyl)oxazole-4-carboxamide]
24% | 43% | CN(C)CCN1CCN(C(=O)c2nc(-c3ccc(F)cc3)oc2-c2ccccc2[N+](=O)[O-])CC1 [Compound 228, (4-(2-(Dimethylamino)ethyl)piperazin-1-yl)(2-(4-fluorophenyl)-5-(2-nitrophenyl)oxazol-4-yl)methanone]
-20% | -18% | CN(C)CCNC(=O)c1nc(-c2cccc(C(F)(F)F)c2)oc1-c1ccccc1 [Compound 121, N-(2-(Dimethylamino)ethyl)-5-phenyl-2-(3-(trifluoromethyl)phenyl)oxazole-4-carboxamide]
-26% | -22% | COc1ccc(-c2nc(C(=O)NCCN(C)C)c(-c3ccccc3)o2)cc1 [Compound 212, N-(2-(Dimethylamino)ethyl)-2-(4-methoxyphenyl)-5-phenyloxazole-4-carboxamide]
-14% | 6% | CN(C)CCNC(=O)c1nc(-c2ccc(C(F)(F)F)cc2)oc1-c1ccccc1 [Compound 126, N-(2-(Dimethylamino)ethyl)-5-phenyl-2-(4-(trifluoromethyl)phenyl)oxazole-4-carboxamide]
6% | 1% | CN(C)CCNC(=O)c1nc(-c2ccc3ccccc3c2)oc1-c1ccccc1 [Compound 257, N-(2-(Dimethylamino)ethyl)-2-(naphthalen-2-yl)-5-phenyloxazole-4-carboxamide]
15% | 26% | CN1CCN(CCNC(=O)c2nc(-c3ccc(Cl)cc3)oc2-c2ccccc2)CC1 [Compound 245, 2-(4-Chlorophenyl)-N-(2-(4-methylpiperazin-1-yl)ethyl)-5-phenyloxazole-4-carboxamide]
29% | 35% | CN1CCN(CCNC(=O)c2nc(-c3ccc(N(C)C)cc3)oc2-c2ccccc2[N+](=O)[O-])CC1 [Compound 264, 2-(4-(Dimethylamino)phenyl)-N-(2-(4-methylpiperazin-1-yl)ethyl)-5-(2-nitrophenyl)oxazole-4-carboxamide]
-25% | -8% | CN(C)CCNC(=O)c1nc(-c2ccc(F)cc2)oc1-c1ccccc1[N+](=O)[O-] [Compound 226, N-(2-(Dimethylamino)ethyl)-2-(4-fluorophenyl)-5-(2-nitrophenyl)oxazole-4-carboxamide]
22% | 42% | CCOC(=O)c1nc(-c2ccc3ccccc3c2)oc1-c1ccccc1 [Compound 83, Ethyl 2-(naphthalen-2-yl)-5-phenyloxazole-4-carboxylate]

inhibition (30 µM) | inhibition (100 µM) | Structure (SMILES)
-19% | -34% | O=C(c1nc(-c2ccc(C(F)(F)F)cc2)oc1-c1ccccc1[N+](=O)[O-])N1CCCCC1 [Compound 144, (5-(2-Nitrophenyl)-2-(4-(trifluoromethyl)phenyl)oxazol-4-yl)(piperidin-1-yl)methanone]
49% | 71% | CCOC(=O)c1nc(-c2cccc(F)c2)oc1-c1ccccc1[N+](=O)[O-] [Compound 66, Ethyl 2-(3-fluorophenyl)-5-(2-nitrophenyl)oxazole-4-carboxylate]
3% | 8% | CN(C)CCNC(=O)c1nc(-c2ccc(N(C)C)cc2)oc1-c1ccccc1 [Compound 261, N-(2-(Dimethylamino)ethyl)-2-(4-(dimethylamino)phenyl)-5-phenyloxazole-4-carboxamide]
-54% | -98% | CN(C)CCNC(=O)c1nc(-c2ccc(F)cc2)oc1-c1ccc([N+](=O)[O-])cc1 [Compound 229, N-(2-(Dimethylamino)ethyl)-2-(4-fluorophenyl)-5-(4-nitrophenyl)oxazole-4-carboxamide]
-7% | -5% | CN(C)CCNC(=O)c1nc(-c2cccc(OC(F)(F)F)c2)oc1-c1ccccc1[N+](=O)[O-] [Compound 201, N-(2-(Dimethylamino)ethyl)-5-(2-nitrophenyl)-2-(3-(trifluoromethoxy)phenyl)oxazole-4-carboxamide]
-6% | -21% | CN(C)CCNC(=O)c1nc(-c2ccc(C#N)cc2)oc1-c1ccccc1[N+](=O)[O-] [Compound 251, 2-(4-Cyanophenyl)-N-(2-(dimethylamino)ethyl)-5-(2-nitrophenyl)oxazole-4-carboxamide]
73% | 71% | O=C(NCCN1CCNCC1)c1nc(-c2ccc(C(F)(F)F)cc2)oc1-c1ccccc1[N+](=O)[O-] [Compound 281, 5-(2-nitrophenyl)-N-(2-(piperazin-1-yl)ethyl)-2-(4-(trifluoromethyl)phenyl)oxazole-4-carboxamide]
20% | 37% | CCN(CC)CCNC(=O)c1nc(-c2ccc(C(C)(C)C)cc2)oc1-c1ccccc1[N+](=O)[O-] [Compound 270, 2-(4-(tert-Butyl)phenyl)-N-(2-(diethylamino)ethyl)-5-(2-nitrophenyl)oxazole-4-carboxamide]
-28% | -49% | COc1ccc(-c2nc(C(=O)NCCN(C)C)c(-c3ccccc3[N+](=O)[O-])o2)cc1 [Compound 214, N-(2-(Dimethylamino)ethyl)-2-(4-methoxyphenyl)-5-(2-nitrophenyl)oxazole-4-carboxamide]
10% | 15% | O=C(NCCCN1CCCC1)c1nc(-c2ccc(C(F)(F)F)cc2)oc1-c1ccccc1[N+](=O)[O-] [Compound 140, 5-(2-Nitrophenyl)-N-(3-(pyrrolidin-1-yl)propyl)-2-(4-(trifluoromethyl)phenyl)oxazole-4-carboxamide]
18% | 41% | CCOC(=O)c1nc(-c2ccc(F)c(F)c2)oc1-c1ccccc1 [Compound 70, Ethyl 2-(3,4-difluorophenyl)-5-phenyloxazole-4-carboxylate]
20% | 19% | O=C(NCCc1ccc(F)cc1)c1nc(-c2ccc(C(F)(F)F)cc2)oc1-c1ccccc1[N+](=O)[O-] [Compound 149, N-(4-Fluorophenethyl)-5-(2-nitrophenyl)-2-(4-(trifluoromethyl)phenyl)oxazole-4-carboxamide]
20% | 24% | CN(C)CCN1CCN(C(=O)c2nc(-c3cccc(C(F)(F)F)c3)oc2-c2ccccc2[N+](=O)[O-])CC1 [Compound 125, (4-(2-(Dimethylamino)ethyl)piperazin-1-yl)(5-(2-nitrophenyl)-2-(3-(trifluoromethyl)phenyl)oxazol-4-yl)methanone]
11% | 44% | COc1ccc(-c2nc(C(=O)NCCN3CCN(C)CC3)c(-c3ccc([N+](=O)[O-])cc3)o2)cc1 [Compound 219, 2-(4-methoxyphenyl)-N-(2-(4-methylpiperazin-1-yl)ethyl)-5-(4-nitrophenyl)oxazole-4-carboxamide]
-18% | 0% | CN1CCN(CCNC(=O)c2nc(-c3cccc(C(F)(F)F)c3)oc2-c2ccccc2)CC1 [Compound 122, N-(2-(4-Methylpiperazin-1-yl)ethyl)-5-phenyl-2-(3-(trifluoromethyl)phenyl)oxazole-4-carboxamide]
3% | 2% | O=C(c1nc(-c2ccc(C(F)(F)F)cc2)oc1-c1ccccc1[N+](=O)[O-])N1CCN(CCN2CCCC2)CC1 [Compound 170, (5-(2-Nitrophenyl)-2-(4-(trifluoromethyl)phenyl)oxazol-4-yl)(4-(2-(pyrrolidin-1-yl)ethyl)piperazin-1-yl)methanone]
-12% | 33% | COc1ccc(-c2nc(C(=O)NCCN3CCN(C)CC3)c(-c3ccccc3[N+](=O)[O-])o2)cc1 [Compound 215, 2-(4-Methoxyphenyl)-N-(2-(4-methylpiperazin-1-yl)ethyl)-5-(2-nitrophenyl)oxazole-4-carboxamide]
